{
  "source": "patent US20170276668A1",
  "about": "“NEURAL MICROPHYSIOLOGICAL SYSTEMS AND METHODS OF USING THE SAME” (The Administrators of the Tulane Educational Fund, priority 2014, published 2017)",
  "molecules": {"B1": {"name": "CNTF: ciliary neurotrophic factor (protein, UniProt P26441 1-200, looked up)", "Ciliary neurotrophic factor": "MAFTEHSPLTPHRRDLCSRSIWLARKIRSDLTALTESYVKHQGLNKNINLDSADGMPVASTDQWSELTEAERLQENLQAYRTFHVLLARLLEDQQVHFTPTEGDFHQAIHTLLLQVAAFAYQIEELMILLEYKIPRNEADGMPINVGDGGLFEKKLWGLKVLQELSQWTVRSIHDLRFISSHQTGIPARGSHYIANNKKM"}, "B2": {"name": "BDNF: brain-derived neurotrophic factor (protein, UniProt P23560 19-247, looked up)", "Neurotrophic factor BDNF …": "APMKEANIRGQGGLAYPGVRTHGTLESVNGPKAGSRGLTSLADTFEHVIEELLDEDQKVRPNEENNKDADLYTSRVMLSSQVPLEPPLLFLLEEYKNYLDAANMSMRVRRHSDPARRGELSVCDSISEWVTAADKKTAVDMSGGTVTVLEKVPVSKGQLKQYFYETKCNPMGYTKEGCRGIDKRHWNSQCRTTQSYVRALTMDSKKRIGWRFIRIDTSCVCTLTIKRGR"}},
  "key": {"[1]": {"tested_on": "neuronal cell death in vitro", "details": "cited from earlier work"}, "DRG neurites": {"tested_on": "DRG neurites", "assay": "DRG neurite growth toward a factor diffusing from a reservoir in the hydrogel construct", "format": "cell-based", "details": "NGF vs BSA diffusing from a reservoir, FIG. 28"}, "[2]": {"tested_on": "DRG explants in dual hydrogel constructs", "format": "cell-based, rat", "details": "for response duration before (t1-t5) vs after (t16-t20) drug wash-in / response amplitude before (t1-t5) vs after (t16-t20) drug wash-in: 20 μM DNQX and 50 μM APV applied together; for response duration before (t1-t5) vs after (t16-t20) drug wash-in: n=4, at half-peak; for response amplitude before (t1-t5) vs after (t16-t20) drug wash-in: n=4, peak-to-peak"}, "[3]": {"tested_on": "DRG/Schwann cell co-culture", "assay": "DRG/SC three-dimensional co-culture: neurite growth and myelin formation (immunohistochemistry, confocal)", "format": "cell-based, rat", "from_the_text": "The dual hydrogel culture system was fabricated using a digital projection photolithography, as described above. A schematic of the process is seen in FIG. 13. In brief, a photolithography apparatus comprised of a collimated UV light source (OmniCure 1000 with 320-500 nm filter, EXFO, Quebec, Canada) and a visible light source (SOLA light engine with […] filter, Lumencor, Oreg., USA), a digital micromirror device (DMD) (Discovery™ 3000, Texas Instruments, Dallas, Tex.) as a dynamic photomask and a 2× Plan Fluor objective lens (Nikon Instruments, Tokyo, Japan) were utilized to irradiate the photocurable hydrogel solution that was contained in a permeable cell culture insert with 0.4 μm pore size. The inserts were either collagen-coated PTFE Transwell® Permeable Support or Transwell™ Clear Polyester Membrane Inserts (Corning Inc., Corning, N.Y., USA) to investigate the influence of collagenated substrates on SC/neuron incorporation. The dual hydrogel system consists of two compartments: a cell permissive section that contains neurons and a cell restrictive section that acts as a hydrogel mold. In order to make the cell restrictive section, a solution of 10% (w/v) PEG-diacrylate (Mn 1000; Polysciences Inc., Warrington, Pa.) and 0.5% (w/v) Irgacure 2959 in PBS was irradiated with 85 mW/cm2 UV light as measured by a radiometer (306 UV Powermeter, Optical Associates, San Jose, Calif.), for 38 seconds to make a PEG micromold, shown in FIG. 13. The cell culture insert was treated with filtered Rain-X® Original Glass Treatment (RainX, Houston, Tex.) prior to addition of the gel solution in order to avoid meniscus behavior. 0.5 ml of solution was added to each 6-well plate insert. Addition of 0.5 ml solution results in a gel thickness of 480 μm. Hydrogel constructs were washed in DPBS with 1% antibiotic-antimycotic additive to inhibit contamination.\nAs the first step of the co-culture, the primary tissue culture was performed. The PEG constructs were prepared and immersed in the adhesion media and incubated (37° C., 5% C02) overnight prior to the tissue culture. The adhesion media was comprised of Neurobasal medium supplemented with B27 (2% v/v), L-glutamine (0.25% v/v), nerve growth factor (NGF) (0.02 μg/ml), fetal bovine serum (FBS) (10% v/v/) and penicillin/streptomycin (1% v/v) (all from Life Technologies, CA). The constructs were then cultured with Long Evans rat embryo dorsal root ganglion (DRG) tissue, in keeping with the guidelines of the Institutional Animal Care and Use Committee. The DRGs were isolated from embryonic day 15 rat embryos and trimmed prior to the culture. A single DRG explant was placed in each construct. The DRGs were then incubated in fresh adhesion media overnight to allow the tissue to adhere to the insert\nThe SCs were dispersed in 50% MeDex solution in SC medium as described above to reach a cell count of 20×10^6 cell/mL. In order to achieve an evenly distributed single cell solution, the gel mixture was pipetted up and down vigorously. The adhesion medium was aspirated from the channels gently to avoid disturbing the adhered DRGs and 2 μL of the MeDex single cell solution was added to each PEG micromold. A negative photomask was loaded on the DMD and the gel solution in the channel was crosslinked with 85 mW/cm^2 visible light as measured by a radiometer (306 UV Powermeter, Optical Associates, San Jose, Calif.) after 30 seconds of irradiation using a visible light source (SOLA light engine with 375-650 nm filter, Lumencor, Oreg., USA). The constructs were gently washed using the wash buffer described above three times.\nIn order to understand the influence of various media regimens on the behavior of DRGs and SCs in a three-dimensional co-culture, two different culture systems were applied. The culture systems are described in Table 2. Culture System 1 has two phases where Media 1 (10 days) and 2 (15 days) are applied in that order. […]"}, "Retinal explants": {"tested_on": "Retinal explants", "assay": "Retinal explant culture in 3D micropatterned hydrogels", "format": "cell-based, rat", "details": "neurobasal Sato medium supplemented with the factor, one week, β-III tubulin", "procedure": "Work and experimental data for the dorsal root ganglia model is presented in the present disclosure. For a central nervous system model, the growth of retinal explants has also been explored. FIGS. 27A-27B depict a culture of retinal (CNS) tissue. Retinal explants from embryonic rats were cultured within 3D micropatterned hydrogels in “neurobasal Sato” medium supplemented with either ciliary neurotrophic factor CNTF ([…]) or brain-derived neurotrophic factor BDNF ([…])."}},
  "note": "Entries after “also recorded” stand apart in the source; their conditions may differ.",
  "data": [
    {"molecule": "CC(=O)O[C@H]1C(=O)[C@@]2(C)[C@H]([C@H](OC(=O)c3ccccc3)[C@]3(O)C[C@H](OC(=O)[C@H](O)[C@@H](NC(=O)c4ccccc4)c4ccccc4)C(C)=C1C3(C)C)[C@]1(OC(C)=O)CO[C@@H]1C[C@@H]2O", "note": "[Paclitaxel]", "values": [
      {"measurement": "Neurotoxic dose", "setting": "[1]", "result": 0.1, "unit": "µM"}
    ]},
    {"molecule": "NGF: nerve growth factor", "values": [
      {"measurement": "direction of DRG neurite growth", "setting": "DRG neurites", "result": "grow preferentially toward NGF"}
    ]},
    {"molecule": "O=C1N=c2cc([N+](=O)[O-])c([N+](=O)[O-])cc2=NC1=O", "note": "[DNQX, 6,7-dinitroquinoxaline-2,3Dione]", "values": [
      {"measurement": "response duration before (t1-t5) vs after (t16-t20) drug wash-in", "setting": "[2]", "result": "no statistically significant difference; also recorded: no marked change"},
      {"measurement": "response amplitude before (t1-t5) vs after (t16-t20) drug wash-in", "setting": "[2]", "result": "no statistically significant difference; also recorded: no marked change"}
    ]},
    {"molecule": "CC(C)C[C@H](NC(=O)[C@H](Cc1ccccc1)NC(=O)c1cnccn1)B(O)O", "note": "[Bortezomib]", "values": [
      {"measurement": "Neurotoxic dose", "setting": "[1]", "result": 0.02, "unit": "µM"}
    ]},
    {"molecule": "NC1=N[C@H](O)[C@H]2[C@H]3O[C@]4(O)O[C@@H]([C@@H](O)[C@@]2(N1)[C@@H]4O)[C@]3(O)CO", "note": "[TTX, tetrodotoxin]", "values": [
      {"measurement": "average response amplitude (peak-to-peak) after wash-in", "setting": "[2]", "result": 0.04, "unit": "μV"},
      {"measurement": "effect on CAP / population response", "setting": "[2]", "result": "reversibly abolished; also recorded: completely abolished; also recorded: abolishment of population response"},
      {"measurement": "time to complete abolishment of responses", "setting": "[2]", "result": "≤ 2", "unit": "min"}
    ]},
    {"molecule": "CC[C@]1(O)C[C@H]2CN(CCc3c([nH]c4ccccc34)[C@@](C(=O)OC)(c3cc4c(cc3OC)N(C=O)[C@H]3[C@@](O)(C(=O)OC)[C@H](OC(C)=O)[C@]5(CC)C=CCN6CC[C@]43[C@@H]65)C2)C1", "note": "[Vincristine]", "values": [
      {"measurement": "Neurotoxic dose", "setting": "[1]", "result": 0.1, "unit": "µM"}
    ]},
    {"molecule": "collagen", "values": [
      {"measurement": "amount of myelin formation", "setting": "[3]; 25 days, addition of collagen I and III", "result": "increased"},
      {"measurement": "volume of neuronal outgrowth, cultures with vs without collagen", "setting": "[3]; 25 days, collagen-coated inserts, n=15-18 constructs", "result": "significantly higher volume; also recorded: significantly more neuronal growth"},
      {"measurement": "amount of MBP-positive myelin", "setting": "[3]; 25 days, presence of collagen, FIG. 17B", "result": "increased"},
      {"measurement": "amount of PO-positive myelin", "setting": "[3]; 25 days, presence of collagen, FIG. 18B", "result": "increased"}
    ]},
    {"molecule": "N[C@H](CCCP(=O)(O)O)C(=O)O", "note": "[APV, (2R)-amino-5-phosphonopentanoate]", "values": [
      {"measurement": "response duration before (t1-t5) vs after (t16-t20) drug wash-in", "setting": "[2]", "result": "no statistically significant difference; also recorded: no marked change"},
      {"measurement": "response amplitude before (t1-t5) vs after (t16-t20) drug wash-in", "setting": "[2]", "result": "no statistically significant difference; also recorded: no marked change"}
    ]},
    {"molecule": "O=C1O[C@H]([C@@H](O)CO)C(O)=C1O", "note": "[AA, L-ascorbic acid]", "values": [
      {"measurement": "amount of myelin", "setting": "[3]; 25 days of media containing AA (NCol-25, Col-25)", "result": "considerable increase"},
      {"measurement": "ratio of myelin to neuronal growth (percentage of myelin)", "setting": "[3]; longer exposures to AA, MBP, MAG, PO stains", "result": "increases"}
    ]},
    {"molecule": "B1", "values": [
      {"measurement": "retinal ganglion cell axon extension", "setting": "Retinal explants", "result": "Observable retinal ganglion cell axon extension"}
    ]},
    {"molecule": "B2", "values": [
      {"measurement": "retinal ganglion cell axon extension", "setting": "Retinal explants", "result": "Observable retinal ganglion cell axon extension"}
    ]}
  ]
}
